Data published in article PMC9500755, “Albumin-Mediated Size Exclusion Chromatography: The Apparent Molecular Weight of PSMA Radioligands as Novel Parameter to Estimate Their Blood Clearance Kinetics” (Pharmaceuticals, 2022).
Several values for one entry are separate records, joined by “and”; a condition that tells them apart may be missing. Equal entries are not always repeated.

Key:
[1] = design: method as in PMID 26985056; details: 177Lu-labeled; cited from earlier work
[2] = Calculated glomerular sieving coefficients (GSCcalc) from MWapp,norm.; details: from MWapp,norm. via sigmoidal fit of MW vs GSC of 12 human plasma proteins
From the text: Therefore, when comparing the MWapp,norm. of different radioligands, not only their relative difference but also the absolute values of MWapp,norm. are of importance. […] These GSCcalc determined for all the PSMA radioligands (Table 2, Figure 5) inherently account for the exponential nature of the relationship between their albumin-mediated MWapp,norm. and MW-dependent GF and could, therefore, be a useful parameter to estimate differences in blood clearance by means of GF. The GSC is defined as the ratio of a compound’s concentration in the glomerular filtrate to that in the blood; thus, a GSC of 1 represents unhindered filtration through the capillary membrane in the glomerulus, while a lower GSC corresponds to a restricted filtration and, thus, a prolonged circulatory half-life. […] As an example, a GSCcalc of 0.408 was determined for rhPSMA-7.3, while an almost three-fold smaller GSCcalc of 0.138 was determined for rhPSMA-7.4. […] This would constitute a dramatic physiological effect that, in its extent, could not be predicted only based on subtle differences in molecular structure and other conventionally determined in vitro parameters. We, therefore, believe that the MWapp,norm. and GSCcalc obtained by AMSEC could be important parameters that, already at the preclinical stage of development, could help in the selection of promising therapeutic radioligands with pharmacokinetic profiles suitable for patient application.
A sigmoidal fit of molecular weights (MWs, in kDa) and corresponding glomerular sieving coefficients (GSCs) of 12 human plasma proteins (data taken from Norden et al.) was executed using OriginPro software. A dose-response model based on Equation (6) was applied:(6) GSC=A1+A2−A1/1+10^(LOGx0−MW)·p.
The values of bottom asymptote A1 and top asymptote A2 were set to 4.2∙10^−5 (GSC of IgG, data taken from Norden et al.) and 1 (equaling complete sieving), respectively. Curve fitting gave the center parameter LOGx0 = 19.36833 and the Hill slope p = −0.12108. GSCcalc values were calculated via implementation of fitting parameters and the experimentally determined MWapp,norm. in Equation (6).

[3] = molecular target: T1, human serum albumin (HSA) (Homo sapiens, UniProt P02768); experiment: Albumin-mediated size exclusion chromatography (AMSEC); assay type: in vitro ADME; details: for tR,AMSEC (retention time in AMSEC run): 177Lu-labeled ligand, mobile phase 700 µM HSA in PBS pH 7.4, Superdex 75 Increase, corrected for detector offset, normalized to column 1; for Retention factor k: fraction of time the radioligand is complexed to HSA during the AMSEC run, Equation (2); for MWapp,raw (raw apparent molecular weight): from tR,AMSEC by column calibration, 700 µM HSA in PBS pH 7.4; for MWapp,norm. (normalized apparent molecular weight): from tR,norm. by column calibration; for tR,norm. (normalized retention time): normalized with tR,blank, tR,HSA and tR,acetone, Equation (5)
T1 construct: purchased Biowest, Nuaillé, France
T1 sequence (P02768 25-609): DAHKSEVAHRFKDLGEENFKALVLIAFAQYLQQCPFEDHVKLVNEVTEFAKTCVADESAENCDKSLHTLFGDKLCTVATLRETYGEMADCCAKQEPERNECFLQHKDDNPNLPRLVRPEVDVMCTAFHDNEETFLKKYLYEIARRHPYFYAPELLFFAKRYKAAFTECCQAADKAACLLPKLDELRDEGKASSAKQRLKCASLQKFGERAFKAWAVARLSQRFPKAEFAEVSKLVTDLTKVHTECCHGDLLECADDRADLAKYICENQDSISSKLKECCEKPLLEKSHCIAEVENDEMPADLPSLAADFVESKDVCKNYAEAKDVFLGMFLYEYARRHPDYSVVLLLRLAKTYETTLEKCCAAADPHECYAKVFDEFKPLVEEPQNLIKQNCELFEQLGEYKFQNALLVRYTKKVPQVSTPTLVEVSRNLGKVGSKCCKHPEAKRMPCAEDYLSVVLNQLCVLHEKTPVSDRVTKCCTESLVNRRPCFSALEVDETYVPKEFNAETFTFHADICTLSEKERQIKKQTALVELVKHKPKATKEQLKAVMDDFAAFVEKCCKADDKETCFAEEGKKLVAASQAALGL
Description: All size exclusion chromatographic (SEC) experiments were carried out using the above-mentioned HPLC system equipped with a Superdex 75 Increase 10/300 GL gel filtration size exclusion column (fractionation range 70–3 kDa, GE Healthcare, Uppsala, Sweden). Eluents at room temperature, a constant flow rate of 0.8 mL/min, and an acquisition time of 35 min were generally applied. The column was calibrated as recommended by the manufacturer using a commercially available set of proteins (Gel Filtration LMW Calibration Kit, GE Healthcare, Buckinghamshire, UK). Retention times of calibration proteins and calculated calibration parameters are given in the Supplementary Materials (Table S3). UV signal detection occurred at 280 nm.
All retention times of radio signals were corrected for the offset between the UV-vis detector and radio-detector (Δt = 0.084 min). Throughout the development of the AMSEC method, three gel filtration columns of the same type were used for experiments (most data were acquired using column 1). As calculations were based on absolute empirical retention times that inherently differed slightly from column to column, all retention times determined on column 2 and column 3 were mathematically converted to an equivalent retention time on column 1 using the columns’ calibration parameters. A detailed description of these calculations is provided in the Supplementary Materials.
All numerical retention times explicitly given in running text or tables and plotted in diagrams are already corrected for the offset between UV-vis and radio-detector and, if initially determined on columns 2 or 3, converted to the equivalent retention time on column 1 (for detailed information, see Equations (S1) and (S2) and Table S1 in the Supplementary Materials).
AMSEC runs were executed with a solution of HSA (Biowest, Nuaillé, France) in PBS (pH 7.4) at physiological concentration (700 µM) as a mobile phase. Upon injection of approximately 1.0 MBq (5–10 µL) of a radioligand, the elution profile was monitored via radioactivity detection, and the retention times of observed radiopeaks (tR,AMSEC) were determined via semi-automated peak integration. By means of calibration, retention times were translated into a ligand-specific raw apparent molecular weight (MWapp,raw) as a parameter to assess the extent of HSA binding (for calculation, see Equation (S6) in the Supplementary Materials). rhPSMA-7.3 served as an internal standard during AMSEC studies and was co-evaluated whenever new data were collected to assess the reproducibility of the method (n = 14).
For reference purposes, conventional SEC runs of HSA (100 µL, 3 mg/mL) and acetone (100 µL, 2% in PBS pH 7.4) with PBS (pH 7.4) as a mobile phase were executed. The retention time of HSA (tR,HSA) corresponded to the maximal MWapp,raw, theoretically observable in AMSEC runs in the case of continuous binding of a radioligand to HSA (equivalent to 100% HSA binding). The retention time of acetone (tR,acetone) served as a reference for a ligand with no interaction with HSA in AMSEC runs (equivalent to 0% HSA binding) and an actual physical molecular weight below the column fractionation range (this was the case for all investigated radioligands).
MWapp,raw values determined as described in Section 3.3.1. were normalized in order to account for ligand-specific influences on experimentally determined retention times and to establish quantitative comparability of the obtained MWapp,norm. values. The normalization was based on a SEC run (referred to as blank run) of a radioligand executed in analogy to the AMSEC run but using PBS (pH 7.4) without HSA as a mobile phase. The determined retention time tR,blank, together with the retention time tR,AMSEC from the AMSEC run, tR,HSA, and tR,acetone determined in Section 3.3.1, were used to calculate a normalized retention time tR,norm. for every radioligand (for formulae and details on the calculation, see Section 2. Results and Discussion). […]

[4] = design: method as in PMID 30105912, PMID 29684274; details: 177Lu-labeled, mice; cited from earlier work
[5] = design: method as in PMID 34531260; details: 177Lu-labeled, intrapatient comparison vs PSMA-I&T; cited from earlier work
[6] = Blank SEC run of radioligand (PBS pH 7.4 without HSA); assay type: physicochemical; details: PBS pH 7.4 without HSA
Description: To validate this hypothesis, blank runs (PBS pH 7.4 as mobile phase) of the radioligands on the SEC column were performed. The resulting retention times were termed tR,blank and represent the ligand-specific retention time that would correspond to 0% HSA binding in the AMSEC experiment. […] We concluded that unspecific electrostatic interactions between the highly negatively charged radioligand and the agarose/dextran-based matrix of the superdex column are present and lead to an elution prior to the expected cut-off volume. Consequently, apart from the radioligand’s binding to HSA in the AMSEC run, the unspecific interactions with the column matrix contribute to the determined MWapp,raw, thus hampering its informative value. […]
MWapp,raw values determined as described in Section 3.3.1. were normalized in order to account for ligand-specific influences on experimentally determined retention times and to establish quantitative comparability of the obtained MWapp,norm. values. […] The determined retention time tR,blank, together with the retention time tR,AMSEC from the AMSEC run, tR,HSA, and tR,acetone determined in Section 3.3.1, were used to calculate a normalized retention time tR,norm. for every radioligand (for formulae and details on the calculation, see Section 2. Results and Discussion). […]

[7] = design: method as in PMID 35086894; details: head-to-head with four isomers of rhPSMA-7 and rhPSMA-10.2; cited from earlier work

SMILES	blood clearance [1]	GSCcalc (calculated glomerular sieving coefficient) [2]	tR,AMSEC (retention time in AMSEC run) [3]	Retention factor k [3]	MWapp,raw (raw apparent molecular weight) [3]	MWapp,norm. (normalized apparent molecular weight) [3]	tR,norm. (normalized retention time) [3]	therapeutic efficacy compared to PSMA-617 [4]	tumor dose relative to PSMA-I&T [5]	MW mathematically corresponding to tR,blank [6]	mean MWapp,raw ([3]; mean ± SD, n = 14)	MWapp,norm. higher than that of the stereoisomer ([3]; rhPSMA-7.2 vs rhPSMA-7.1, rhPSMA-10.1 vs rhPSMA-10.2)	blood clearance in mice [7]
O=C(O)CC[C@H](NC(=O)N[C@@H](CCCCNC(=O)[C@H](Cc1ccc2ccccc2c1)NC(=O)[C@H]1CC[C@H](CNC(=O)CN2CCN(CC(=O)O)CCN(CC(=O)O)CCN(CC(=O)O)CC2)CC1)C(=O)O)C(=O)O (177Lu complex, metal not drawn) [PSMA-617, reference compound]	rapid, bi-phasic blood clearance	0.942	17.586 min	0.447	13.8 kDa	9.4 kDa	18.988 min	–	–	–	–	–	–
Cc1ccc(CCCC(=O)NCCCC[C@H](NC(=O)CN2CCN(CC(=O)O)CCN(CC(=O)O)CCN(CC(=O)O)CC2)C(=O)NCC2CCC(C(=O)N[C@@H](Cc3ccc4ccccc4c3)C(=O)NCCCC[C@H](NC(=O)N[C@@H](CCC(=O)O)C(=O)O)C(=O)O)CC2)cc1 (stereo partly shown) (177Lu complex, metal not drawn) [PSMA-ALB-56]	–	–	–	–	–	–	–	superior therapeutic efficacy	–	–	–	–	–
CC(C)(C)[Si](F)(c1ccc(C(=O)NC[C@@H](NC(=O)CC[C@@H](C(=O)O)N2CCN(CC(=O)[O-])CCN(CC(=O)[O-])CCN(CC(=O)[O-])CC2)C(=O)N[C@H](CCCCNC(=O)CCC(=O)NCCC[C@@H](NC(=O)CC[C@H](NC(=O)N[C@@H](CCC(=O)O)C(=O)O)C(=O)O)C(=O)O)C(=O)O)cc1)C(C)(C)C.[177Lu+3] [rhPSMA-7.3]	–	0.408	14.722 min and 14.722 ^3 min	0.667 ^1	30.6 ^3 kDa	20.7 kDa and 20.7 ^1 kDa	16.125 ^1 min	–	2.4 fold	6.0 kDa	30.6 kDa	–	–
CC(C)(C)[Si](F)(c1ccc(C(=O)NC[C@@H](NC(=O)CN2CCN(CC(=O)[O-])CCN(CC(=O)[O-])CCN(CC(=O)[O-])CC2)C(=O)N[C@H](CCCCNC(=O)CCC(=O)NCCC[C@@H](NC(=O)CC[C@H](NC(=O)N[C@@H](CCC(=O)O)C(=O)O)C(=O)O)C(=O)O)C(=O)O)cc1)C(C)(C)C.[177Lu+3] [rhPSMA-10.1]	–	0.644	15.410 min	0.616	25.3 kDa	17.2 kDa	16.789 min	–	–	–	–	30%	fast blood clearance
